Columns and labels:
[1] = system: Leishmania amazonensis; assay: Antileishmanial activity against leishmania amazonensis promastigotes MHOM/BR/77/LTB0016 assessed as parasite growth inhibition incubated for 72 hrs by resazurin dye based analysis; assay type: functional, organism-based; details: MHOM/BR/77/LTB0016, 72 h
[2] = Selectivity index, ratio of CC50 for cytotoxicity against murine peritoneal macrophages assessed as inhibition of cell viability to IC50 for antileishmanial activity against leishmania amazonensis intracellular amastigotes assessed as parasite growth inhibition; assay type: toxicity, cell-based, Macrophage; details: mouse, read-out: Ratio CC50/IC50
[3] = Cytotoxicity against mouse Peritoneal macrophage cell assessed as inhibition of cell viability incubated for 72 hrs by resazurin dye based analysis; assay type: toxicity; details: peritoneal macrophages
[4] = system: Leishmania amazonensis; assay: Antileishmanial activity against leishmania amazonensis intracellular amastigotes assessed as parasite growth inhibition measured after 72 hrs by hematological dye based microscopic analysis; assay type: functional, organism-based

| SMILES | IC50 [1] | selectivity ratio [2] | CC50 at 72 h [3] | IC50 [4] |
| --- | --- | --- | --- | --- |
| CC1(Cc2ccccc2)CC(C(=O)NC2CCCCC2)=C(c2ccc(/C(N)=N/O)cc2)O1 (stereo unspecified) | 43.6 µM |  |  |  |
| CCCCNC(=O)C1=C(c2ccc(/C(N)=N/O)cc2)OC(C)(Cc2ccccc2)C1 (stereo unspecified) | 92.6 µM |  |  |  |
| COC(=O)C1=C(c2ccc(/C(N)=N/O)cc2)OC(C)(Cc2ccccc2)C1 (stereo unspecified) | 4.7 µM | 30.7 | 70.6 µM | 2300 nM |
| CC1(Cc2ccccc2)CC(S(C)(=O)=O)=C(c2ccc(/C(N)=N/O)cc2)O1 (stereo unspecified) | 91.4 µM |  |  |  |
| CC1(Cc2ccccc2)CC(C(=O)N2CCOCC2)=C(c2ccc(/C(N)=N/O)cc2)O1 (stereo unspecified) | > 128 µM |  |  |  |
| CCOC(=O)C1=C(c2ccc(/C(N)=N/O)cc2)OC(C)(Cc2ccccc2)C1 (stereo unspecified) | 6.3 µM | 87.8 | 112 µM | 1300 nM |
| CCCCS(=O)(=O)C1=C(c2ccc(/C(N)=N/O)cc2)OC(C)(Cc2ccccc2)C1 (stereo unspecified) | 63.5 µM |  |  |  |
| CC1(Cc2ccccc2)CC(C(=O)NC2CCCC2)=C(c2ccc(/C(N)=N/O)cc2)O1 (stereo unspecified) | 61.1 µM |  |  |  |
| CC1(Cc2ccccc2)CC(C(=O)NCCN2CCCC2)=C(c2ccc(/C(N)=N/O)cc2)O1 (stereo unspecified) | 102 µM |  |  |  |
| CCN(CC)C(=O)C1=C(c2ccc(/C(N)=N/O)cc2)OC(C)(Cc2ccccc2)C1 (stereo unspecified) | 60.4 µM |  |  |  |

From ChEMBL document CHEMBL6074651, “Hit-to-lead optimization of 4,5-dihydrofuran-3-sulfonyl scaffold against Leishmania amazonensis. Effect of an aliphatic moiety” (Eur J Med Chem, 2024)
